Target: T1, CD44 (Homo sapiens, UniProt P16070)
T1 construct: endogenous in cells
Assay: CD44 shedding induction by synthetic oligosaccharide in a cancer cell
Type: cell-based
Conditions: electrophoresis (FIG. 9) and CD44 shedding index with the state without stimulation set to 1 (FIG. 10)
Protocol: FIG. 8 is a flowchart showing the outline of the test method performed in Example 4.
FIG. 9 is a copy of the electrophoresis photograph in which the electrophoresis result of the test performed in Example 4 is shown.
About the compound of the formula (20) and (21) obtained in Example 1, a CD44 shedding induction ability in a cancer cell was evaluated according to the test method shown in FIG. 8.

T1 sequence (P16070 21-742, species assumed): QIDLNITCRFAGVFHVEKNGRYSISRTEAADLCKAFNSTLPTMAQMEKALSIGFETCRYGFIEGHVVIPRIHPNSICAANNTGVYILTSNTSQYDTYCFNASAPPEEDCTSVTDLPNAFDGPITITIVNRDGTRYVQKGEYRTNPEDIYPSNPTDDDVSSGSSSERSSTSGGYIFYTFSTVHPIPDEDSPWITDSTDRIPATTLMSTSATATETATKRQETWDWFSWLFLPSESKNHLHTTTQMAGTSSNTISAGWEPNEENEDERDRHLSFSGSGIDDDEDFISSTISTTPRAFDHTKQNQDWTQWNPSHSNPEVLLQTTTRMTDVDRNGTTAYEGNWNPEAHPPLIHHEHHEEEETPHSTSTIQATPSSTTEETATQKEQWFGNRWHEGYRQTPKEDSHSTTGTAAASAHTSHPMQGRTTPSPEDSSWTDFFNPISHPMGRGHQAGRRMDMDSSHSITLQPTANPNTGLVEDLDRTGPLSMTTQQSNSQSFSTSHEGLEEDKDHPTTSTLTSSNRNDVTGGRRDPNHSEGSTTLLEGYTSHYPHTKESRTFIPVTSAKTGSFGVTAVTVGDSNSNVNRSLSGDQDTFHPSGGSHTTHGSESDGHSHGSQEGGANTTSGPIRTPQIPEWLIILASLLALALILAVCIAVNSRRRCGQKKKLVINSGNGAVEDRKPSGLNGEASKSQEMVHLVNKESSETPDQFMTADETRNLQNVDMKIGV

CD44 shedding induction ability	Substance
induced the shedding of a CD44	β-D-GalNAc-(1->[4]-β-D-GlcA-(1->3)-β-D-GalNAc-(1->)24)-β-D-GlcA-(1->OMP [compound of the formula (20)]
induced more strongly	β-D-GalNAc(4,6-di-OSO3Na)-(1->[4]-β-D-GlcA-(1->3)-β-D-GalNAc(4,6-di-OSO3Na)-(1->24)-β-D-GlcA-(1->OMP [compound of the formula (21)]
